The text below walks through data of patent US20080095720A1, “Skin Benefit Compositions with a Vanilloid Receptor Antagonist” (CONOPCO, INC., D/B/A UNILEVER, priority 2006, published 2008).

The test addresses T1, vanilloid receptor TRP-V1, VR-1 (Homo sapiens, UniProt Q8NER1).
T1 construct: endogenous in cells; host or cells: HaCaT keratinocytes
Put plainly: Interleukin-1α production in HaCaT keratinocytes treated with capsaicin with or without capsazepine. The test is classed as cell-based. The procedure:
Keratinocyte cell lines (HaCaT) were treated with about 1 μM capsaicin (an agonist of vanilloid receptor TRP-V1, VR-1). […] Antagonists of TRP-V1 are thereby expected to be a route to reduce inflammation in the skin when the same is subjected to an irritant.

T1 sequence (Q8NER1 whole entry): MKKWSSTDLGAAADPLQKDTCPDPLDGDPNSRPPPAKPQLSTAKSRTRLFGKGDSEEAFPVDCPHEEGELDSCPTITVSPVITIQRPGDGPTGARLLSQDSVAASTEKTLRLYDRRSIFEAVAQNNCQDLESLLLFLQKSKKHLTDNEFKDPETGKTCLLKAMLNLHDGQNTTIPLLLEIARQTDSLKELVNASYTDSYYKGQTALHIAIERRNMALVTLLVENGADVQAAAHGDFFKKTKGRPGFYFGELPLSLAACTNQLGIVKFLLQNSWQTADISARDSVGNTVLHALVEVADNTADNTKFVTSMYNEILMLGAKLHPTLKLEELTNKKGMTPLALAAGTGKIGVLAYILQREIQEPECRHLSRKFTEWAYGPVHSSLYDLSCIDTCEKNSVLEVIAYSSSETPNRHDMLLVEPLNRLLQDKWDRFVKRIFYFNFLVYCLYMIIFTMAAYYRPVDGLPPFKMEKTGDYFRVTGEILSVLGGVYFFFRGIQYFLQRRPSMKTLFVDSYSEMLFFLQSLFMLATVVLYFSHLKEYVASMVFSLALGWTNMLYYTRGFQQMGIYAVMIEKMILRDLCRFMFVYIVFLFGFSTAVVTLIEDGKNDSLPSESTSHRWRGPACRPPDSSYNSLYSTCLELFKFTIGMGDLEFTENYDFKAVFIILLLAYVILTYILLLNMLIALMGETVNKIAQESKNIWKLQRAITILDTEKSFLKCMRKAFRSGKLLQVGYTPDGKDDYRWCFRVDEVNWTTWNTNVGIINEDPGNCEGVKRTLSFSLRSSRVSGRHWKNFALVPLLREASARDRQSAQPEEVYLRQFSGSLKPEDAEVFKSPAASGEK

On to `COc1cc(CNC(=O)CCCC/C=C/C(C)C)ccc1O` [capsaicin], for which, for the setting “HaCaT keratinocyte cell lines, about 1 μM capsaicin, p<0.001”, the “production of interleukin-1α” value is listed as “significant increase”.
Regarding `Oc1cc2c(cc1O)CN(C(=S)NCCc1ccc(Cl)cc1)CCC2` [capsazepine], the “interleukin-1α increase in response to capsaicin” value (HaCaT keratinocytes, capsaicin (1 μM) in the presence of about 3 μM capsazepine) is recorded as “blocked the interleukin-1α increase”. For the same compound, the interleukin-1α levels entry (HaCaT keratinocytes, capsazepine alone) is recorded as “no effect”.
